Laboratory results reported in the supplement of paper PMC11962398.

Key:
BI-2493 [1] = compound: T1, C[C@H]1CNCCN1c1nccc(-c2noc3c2CCC[C@@]32CCCc3sc(N)c(C#N)c32)n1 [BI-2493]; assay: 1 - AUC of viability dose-response curve (sensitivity) (fraction); higher = more sensitive; conditions: 5 days
Protocol: (§1)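 PRISM pooled barcoded cancer cell line viability screen (Broad Institute) with BI-2493 at 8 doses in threefold dilutions from 0.00457 to 10 µmol/L, 5-day treatment; curves fitted per cell line. IC50 is undefined (placeholder) for resistant lines. AUC is capped at 1, and sensitivity is reported as 1 − AUC.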

BI-2493 [2] = compound: T1, BI-2493; conditions: 5 days
Protocol: as §1

| Test System | 1 - AUC of viability dose-response curve (BI-2493 [1]) | IC50 of cell viability (BI-2493 [2]) [µM] |
| --- | --- | --- |
| TE1_OESOPHAGUS | 0.0344 | 9.58 |
| SUPT11_HAEMATOPOIETIC_AND_LYMPHOID_TISSUE | 0.0681 | 5.2 |
| SKN_ENDOMETRIUM | 0.101 | 6.7 |
| OC316_OVARY | 0.113 | 5.73 |
| J82_URINARY_TRACT | 0.122 | 5.23 |
| SKNAS_AUTONOMIC_GANGLIA | 0.086 | 4.32 |
| CAMA1_BREAST | 0.00667 | > 10 |
| RCC10RGB_KIDNEY | 0.0818 | 6.59 |
| EW8_BONE | 0.0935 | 4.5 |
| MALME3M_SKIN | 0.0805 | 6.19 |
| KYO1_HAEMATOPOIETIC_AND_LYMPHOID_TISSUE | 0.00435 | 9.93 |
| NCIH1915_LUNG | 0.0137 | 9.46 |
| TE617T_SOFT_TISSUE | 0.193 | 3.75 |
| CHP212_AUTONOMIC_GANGLIA | 0.00818 | 9.9 |
| IM95_STOMACH | 0.152 | 4.31 |
| KON_UPPER_AERODIGESTIVE_TRACT | 0.189 | 3.51 |
| NP3_CENTRAL_NERVOUS_SYSTEM | 0.0412 | 8.21 |
| NCIH1299_LUNG | 0.0368 | 8.5 |
| PLCPRF5_LIVER | 0.132 | 5.13 |

| Test System | 1 - AUC of viability dose-response curve (BI-2493 [1]) | IC50 of cell viability (BI-2493 [2]) [µM] |
| --- | --- | --- |
| NCIH28_PLEURA | 0.0967 | 5.43 |
| SCC25_UPPER_AERODIGESTIVE_TRACT | 0.128 | 5.3 |
| MM1S_HAEMATOPOIETIC_AND_LYMPHOID_TISSUE | 0.413 | 0.558 |
| CHLA15_AUTONOMIC_GANGLIA | 0.187 | 5.41 |
| SNU182_LIVER | 0.0527 | > 10 |
| NCIH522_LUNG | 0.0303 | 9.9 |
| RT4_URINARY_TRACT | 0.147 | 5.51 |
| MONOMAC1_HAEMATOPOIETIC_AND_LYMPHOID_TISSUE | 0.17 | 7.33 |
| NCIH1648_LUNG | 0.26 | 1.57 |
| PK59_PANCREAS | 0.336 | 1.05 |
| NOZ_LIVER | 0.0154 | 9.22 |
| G415_BILIARY_TRACT | 0.245 | 2.22 |
| HT115_LARGE_INTESTINE | 0.229 | 2.29 |
| HDQP1_BREAST | 0.0753 | 8.25 |
| MDST8_LARGE_INTESTINE | 0.00776 | 9.82 |
| SUDHL1_HAEMATOPOIETIC_AND_LYMPHOID_TISSUE | 0.14 | 4.67 |
| IGR39_SKIN | 0.0609 | 5.87 |
| SW1783_CENTRAL_NERVOUS_SYSTEM | 0.0474 | 7.49 |
